Measured values taken from patent US20230085307A1, “PYRIDAZINONE COMPOUND AND HERBICIDE” (NISSAN CHEMICAL CORPORATION, priority 2019, published 2023).

Legend:
late watergrass [1] = experiment: Test Example 1: herbicidal activity, application before weed generation under submerged conditions (Table 16, symbol A); type: in vivo, late watergrass (Echinochloa oryzicola); conditions: amount of applied herbicide 320 g/ha
Procedure, shortened: (§1)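 Emulsion formulation, water-diluted to set dose, was put onto the flooded surface (4 cm depth, alluvial soil) the same day weeds were sown and 2.5-leaf rice transplanted. After 3 weeks at 25-30 °C under glass, each species was rated 0 (≤5% kill) to 5 (≥90% kill).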

Japanese bulrush [2] = experiment: Test Example 1: herbicidal activity, application before weed generation under submerged conditions (Table 16, symbol B); type: in vivo, Japanese bulrush (Schoenoplectus juncoides); conditions: amount of applied herbicide 320 g/ha
Procedure, shortened: as §1

oval-leafed pondweed [3] = experiment: Test Example 1: herbicidal activity, application before weed generation under submerged conditions (Table 16, symbol C); type: in vivo, oval-leafed pondweed (Monochoria vaginalis); conditions: amount of applied herbicide 320 g/ha
Procedure, shortened: as §1

late watergrass [4] = experiment: Test Example 2: herbicidal activity, application during weed generation under submerged conditions (Table 17, symbol A); type: in vivo, late watergrass (Echinochloa oryzicola); conditions: AAH 320 g/ha; application during weed generation, submerged conditions
Procedure, shortened: (§2)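 Effect on each weed is rated three weeks post-treatment, using the same scoring criteria as the preceding test. Plants grow from mixed-sown seed in flooded alluvial soil (4 cm water) at 25° C. to 30° C., and are treated at one to two leaves with diluted emulsion dropped onto the water.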

Japanese bulrush [5] = experiment: Test Example 2: herbicidal activity, application during weed generation under submerged conditions (Table 17, symbol B); type: in vivo, Japanese bulrush (Schoenoplectus juncoides); conditions: AAH 320 g/ha; application during weed generation, submerged conditions
Procedure, shortened: as §2

oval-leafed pondweed [6] = experiment: Test Example 2: herbicidal activity, application during weed generation under submerged conditions (Table 17, symbol C); type: in vivo, oval-leafed pondweed (Monochoria vaginalis); conditions: AAH 320 g/ha; application during weed generation, submerged conditions
Procedure, shortened: as §2

barnyard grass [7] = experiment: Test Example 3: herbicidal effect by foliage application, Wagner pot (Table 18, symbol H); type: in vivo, barnyard grass (Echinochloa crus-galli); conditions: amount of applied herbicide 320 g/ha
Procedure, shortened: (§3)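 Plants were sown in alluvial soil held under 0.1–0.5 cm standing water and grown 14 days in a greenhouse at 25–30 °C. An emulsifiable formulation, water-diluted to the set dose, was then sprayed onto the foliage, and effects were scored three weeks later using previously defined criteria.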

Chinese sprangletop = experiment: Test Example 3: herbicidal effect by foliage application, Wagner pot (Table 18, symbol D); type: in vivo, chinese sprangletop (Leptochloa chinensis); conditions: amount of applied herbicide 320 g/ha
Procedure, shortened: as §3

rice flat sedge = experiment: Test Example 3: herbicidal effect by foliage application, Wagner pot (Table 18, symbol E); type: in vivo, rice flat sedge (Cyperus iria); conditions: amount of applied herbicide 320 g/ha
Procedure, shortened: as §3

southern crabgrass [8] = experiment: Test Example 4: herbicidal effect by soil treatment (Table 19, symbol F); type: in vivo, southern crabgrass (Digitaria ciliaris); conditions: amount of applied herbicide 320 g/ha
Procedure, shortened: (§4)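 Soil-surface application: an emulsion agent diluted with water to the predetermined dose is sprayed uniformly over seeds lying under roughly 1.5 cm of sterilized diluvial soil. Boxes stay in a greenhouse at 25° C. to 30° C. Three weeks later, each species is graded on previously defined criteria.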

green foxtail [9] = experiment: Test Example 4: herbicidal effect by soil treatment (Table 19, symbol G); type: in vivo, green foxtail (Setaria viridis); conditions: amount of applied herbicide 320 g/ha
Procedure, shortened: as §4

barnyard grass [10] = experiment: Test Example 4: herbicidal effect by soil treatment (Table 19, symbol H); type: in vivo, barnyard grass (Echinochloa crus-galli); conditions: amount of applied herbicide 320 g/ha
Procedure, shortened: as §4

velvetleaf [11] = experiment: Test Example 4: herbicidal effect by soil treatment (Table 19, symbol M); type: in vivo, velvetleaf (Abutilon theophrasti); conditions: amount of applied herbicide 320 g/ha
Procedure, shortened: as §4

redroot pigweed [12] = experiment: Test Example 4: herbicidal effect by soil treatment (Table 19, symbol N); type: in vivo, redroot pigweed (Amaranthus retroflexus); conditions: amount of applied herbicide 320 g/ha
Procedure, shortened: as §4

lambsquarters [13] = experiment: Test Example 4: herbicidal effect by soil treatment (Table 19, symbol O); type: in vivo, lambsquarters (Chenopodium album); conditions: amount of applied herbicide 320 g/ha
Procedure, shortened: as §4

southern crabgrass [14] = experiment: Test Example 5: herbicidal effect by foliage application, plastic box (Table 20, symbol F); type: in vivo, southern crabgrass (Digitaria ciliaris); conditions: foliage application, 320 g/ha, three weeks after application
Procedure, shortened: (§5)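 Sow seeds spot-wise in sterilized diluvial soil; cover with ~1.5 cm soil. Grow 14 days in greenhouse, 25° C. to 30° C. Spray foliage with emulsion diluted to predetermined amount. Rate effect after 3 weeks.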

green foxtail [15] = experiment: Test Example 5: herbicidal effect by foliage application, plastic box (Table 20, symbol G); type: in vivo, green foxtail (Setaria viridis); conditions: foliage application, 320 g/ha, three weeks after application
Procedure, shortened: as §5

barnyard grass [16] = experiment: Test Example 5: herbicidal effect by foliage application, plastic box (Table 20, symbol H); type: in vivo, barnyard grass (Echinochloa crus-galli); conditions: foliage application, 320 g/ha, three weeks after application
Procedure, shortened: as §5

velvetleaf [17] = experiment: Test Example 5: herbicidal effect by foliage application, plastic box (Table 20, symbol M); type: in vivo, velvetleaf (Abutilon theophrasti); conditions: foliage application, 320 g/ha, three weeks after application
Procedure, shortened: as §5

redroot pigweed [18] = experiment: Test Example 5: herbicidal effect by foliage application, plastic box (Table 20, symbol N); type: in vivo, redroot pigweed (Amaranthus retroflexus); conditions: foliage application, 320 g/ha, three weeks after application
Procedure, shortened: as §5

lambsquarters [19] = experiment: Test Example 5: herbicidal effect by foliage application, plastic box (Table 20, symbol O); type: in vivo, lambsquarters (Chenopodium album); conditions: foliage application, 320 g/ha, three weeks after application
Procedure, shortened: as §5

Row | SMILES | Herbicidal effect, A: late watergrass (late watergrass [1]) | Herbicidal effect, B: Japanese bulrush (Japanese bulrush [2]) | Herbicidal effect, C: oval-leafed pondweed (oval-leafed pondweed [3]) | herbicidal effect rating, A: late watergrass (late watergrass [4]) | herbicidal effect rating, B: Japanese bulrush (Japanese bulrush [5]) | herbicidal effect rating, C: oval-leafed pondweed (oval-leafed pondweed [6]) | herbicidal effect on H: barnyard grass (barnyard grass [7]) | herbicidal effect on D: Chinese sprangletop (Chinese sprangletop) | herbicidal effect, F: southern crabgrass (southern crabgrass [8]) | herbicidal effect, G: green foxtail (green foxtail [9]) | herbicidal effect, H: barnyard grass (barnyard grass [10]) | herbicidal effect, M: velvetleaf (velvetleaf [11]) | herbicidal effect, N: redroot pigweed (redroot pigweed [12]) | herbicidal effect, O: lambsquarters (lambsquarters [13]) | F: southern crabgrass, herbicidal effect grade (southern crabgrass [14]) | G: green foxtail, herbicidal effect grade (green foxtail [15]) | H: barnyard grass, herbicidal effect grade (barnyard grass [16]) | M: velvetleaf, herbicidal effect grade (velvetleaf [17]) | N: redroot pigweed, herbicidal effect grade (redroot pigweed [18]) | O: lambsquarters, herbicidal effect grade (lambsquarters [19]) | further results
1 | CC(COc1ccc(-c2sc3ccc(F)cc3c2-c2c(O)c(C)nn(C)c2=O)cc1)=NO [2-453] | 3 (Herbicidal rate of 40% or more and less than 70%) | 3 (Herbicidal rate of 40% or more and less than 70%) | 3 (Herbicidal rate of 40% or more and less than 70%) | 3 (Herbicidal rate of 40% or more and less than 70%) | 4 (Herbicidal rate of 70% or more and less than 90%) | 4 (Herbicidal rate of 70% or more and less than 90%) | 5 (Herbicidal rate of 90% or more (almost completely withered)) | 3 (Herbicidal rate of 40% or more and less than 70%) | 5 (Herbicidal rate of 90% or more (almost completely withered)) | 5 (Herbicidal rate of 90% or more (almost completely withered)) | 5 (Herbicidal rate of 90% or more (almost completely withered)) | 5 (Herbicidal rate of 90% or more (almost completely withered)) | 5 (Herbicidal rate of 90% or more (almost completely withered)) | 5 (Herbicidal rate of 90% or more (almost completely withered)) | 5 (Herbicidal rate of 90% or more (almost completely withered)) | 5 (Herbicidal rate of 90% or more (almost completely withered)) | 5 (Herbicidal rate of 90% or more (almost completely withered)) | 5 (Herbicidal rate of 90% or more (almost completely withered)) | 5 (Herbicidal rate of 90% or more (almost completely withered)) | 5 (Herbicidal rate of 90% or more (almost completely withered)) | herbicidal effect on E: rice flat sedge (rice flat sedge): 2 (Herbicidal rate of 20% or more and less than 40%)
2 | COCCOc1ccc(-c2sc3ccc(F)cc3c2-c2c(O)cnn(C)c2=O)cc1 [2-441] | 3 (Herbicidal rate of 40% or more and less than 70%) | 3 (Herbicidal rate of 40% or more and less than 70%) | 3 (Herbicidal rate of 40% or more and less than 70%) | 3 (Herbicidal rate of 40% or more and less than 70%) | 0 (Herbicidal rate of 5% or less (almost no effect)) | 0 (Herbicidal rate of 5% or less (almost no effect)) | 5 (Herbicidal rate of 90% or more (almost completely withered)) | 0 (Herbicidal rate of 5% or less (almost no effect)) | 0 (Herbicidal rate of 5% or less (almost no effect)) | 0 (Herbicidal rate of 5% or less (almost no effect)) | 0 (Herbicidal rate of 5% or less (almost no effect)) | 1 (Herbicidal rate of 5% or more and less than 20%) | 4 (Herbicidal rate of 70% or more and less than 90%) | 4 (Herbicidal rate of 70% or more and less than 90%) | 4 (Herbicidal rate of 70% or more and less than 90%) | 5 (Herbicidal rate of 90% or more (almost completely withered)) | 5 (Herbicidal rate of 90% or more (almost completely withered)) | 5 (Herbicidal rate of 90% or more (almost completely withered)) | 5 (Herbicidal rate of 90% or more (almost completely withered)) | 5 (Herbicidal rate of 90% or more (almost completely withered)) | 
3 | COCCS(=O)(=O)c1ccc(-c2sc3ccc(F)cc3c2-c2c(O)c(C)nn(C)c2=O)cc1 [2-455] | 3 (Herbicidal rate of 40% or more and less than 70%) | 0 (Herbicidal rate of 5% or less (almost no effect)) | 0 (Herbicidal rate of 5% or less (almost no effect)) | 3 (Herbicidal rate of 40% or more and less than 70%) | 0 (Herbicidal rate of 5% or less (almost no effect)) | 0 (Herbicidal rate of 5% or less (almost no effect)) | 5 (Herbicidal rate of 90% or more (almost completely withered)) | 2 (Herbicidal rate of 20% or more and less than 40%) | 4 (Herbicidal rate of 70% or more and less than 90%) | 4 (Herbicidal rate of 70% or more and less than 90%) | 0 (Herbicidal rate of 5% or less (almost no effect)) | 1 (Herbicidal rate of 5% or more and less than 20%) | 4 (Herbicidal rate of 70% or more and less than 90%) | 3 (Herbicidal rate of 40% or more and less than 70%) | 4 (Herbicidal rate of 70% or more and less than 90%) | 3 (Herbicidal rate of 40% or more and less than 70%) | 4 (Herbicidal rate of 70% or more and less than 90%) | 4 (Herbicidal rate of 70% or more and less than 90%) | 5 (Herbicidal rate of 90% or more (almost completely withered)) | 3 (Herbicidal rate of 40% or more and less than 70%) | herbicidal effect on E: rice flat sedge (rice flat sedge): 0 (Herbicidal rate of 5% or less (almost no effect))
4 | COCCOCc1ccc(-c2sc3ccc(F)cc3c2-c2c(O)c(C)nn(C)c2=O)cc1 [2-445] | 3 (Herbicidal rate of 40% or more and less than 70%) | 0 (Herbicidal rate of 5% or less (almost no effect)) | 0 (Herbicidal rate of 5% or less (almost no effect)) | 3 (Herbicidal rate of 40% or more and less than 70%) | 0 (Herbicidal rate of 5% or less (almost no effect)) | 0 (Herbicidal rate of 5% or less (almost no effect)) |  |  | 5 (Herbicidal rate of 90% or more (almost completely withered)) | 5 (Herbicidal rate of 90% or more (almost completely withered)) | 4 (Herbicidal rate of 70% or more and less than 90%) | 3 (Herbicidal rate of 40% or more and less than 70%) | 5 (Herbicidal rate of 90% or more (almost completely withered)) | 4 (Herbicidal rate of 70% or more and less than 90%) | 5 (Herbicidal rate of 90% or more (almost completely withered)) | 5 (Herbicidal rate of 90% or more (almost completely withered)) | 5 (Herbicidal rate of 90% or more (almost completely withered)) | 5 (Herbicidal rate of 90% or more (almost completely withered)) | 5 (Herbicidal rate of 90% or more (almost completely withered)) | 5 (Herbicidal rate of 90% or more (almost completely withered)) | 
